Experimental data as given in US10166412B2, “Skin lightening composition comprising 4-hexylresorcinol and ilomastat” (Conopco, Inc., priority 2014, dated 2019).

Tests used:
Tyrosinase enzyme = molecular target: T1, Tyrosinase enzyme (Homo sapiens, UniProt P14679); test: In vitro human tyrosinase activity assay (melanocytic lysate); format: biochemical
T1 construct: Primary human melanocytic lysate was used as a source of Tyrosinase enzyme; endogenous in cells; host or cells: primary human melanocytes (lysate)
T1 sequence (P14679 19-529): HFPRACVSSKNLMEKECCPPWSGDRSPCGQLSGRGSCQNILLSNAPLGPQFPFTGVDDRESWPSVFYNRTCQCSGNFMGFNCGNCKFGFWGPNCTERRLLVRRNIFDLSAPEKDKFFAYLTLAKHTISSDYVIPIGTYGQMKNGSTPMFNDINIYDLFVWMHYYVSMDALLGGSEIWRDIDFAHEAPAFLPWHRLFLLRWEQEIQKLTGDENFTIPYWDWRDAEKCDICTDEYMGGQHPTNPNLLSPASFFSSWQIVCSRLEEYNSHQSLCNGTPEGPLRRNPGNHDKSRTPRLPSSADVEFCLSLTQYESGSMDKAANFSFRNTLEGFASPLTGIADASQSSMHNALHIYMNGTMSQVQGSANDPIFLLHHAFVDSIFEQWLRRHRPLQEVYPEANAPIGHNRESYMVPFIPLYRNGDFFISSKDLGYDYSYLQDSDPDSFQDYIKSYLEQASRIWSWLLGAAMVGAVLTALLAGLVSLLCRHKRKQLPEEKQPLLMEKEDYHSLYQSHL
Protocol: (v) In Vitro Human Tyrosinase Activity Assay: • Primary human melanocytic lysate was used as a source of Tyrosinase enzyme. Human melanocytic lysate and test actives (at different concentrations) were incubated together for 15 mins, prior to addition of Tyrosine/DOPA substrate mix. Assay plate was then incubated at 37° C. for ˜14-16 hrs. Optical Density was measured at 405 nm and % inhibition of Tyrosinase activity calculated. Results

[1] = test system: primary human melanocytes; test: Melanin content assay in primary human melanocytes; format: cell-based; settings: for inhibition at 1 µM / inhibition at 10 µM: Homo sapiens, Melanocyte, 72 hrs treatment, corrected for cell numbers, read-out: Average % inhibition of cellular melanin; for reduction of melanin content (in words): primary human melanocytes
Protocol: (i) Cell Cultures: • Neonatal foreskin primary human melanocytes were procured from Life Technologies, USA. Cells were grown in Medium 254 supplemented with human melanocyte growth supplement-2 and maintained at 37° C. in a humidified incubator with 5% CO2 atmosphere. The maintenance and sub culturing of cells were carried out as per the manufacturer's instructions. Cells between passages 3-6 were used for experimentation.
(ii) Active Addition: • Cells were seeded at a density of 5×10^4/well in a 24 well plate in Melanocyte Growth Media (MGM) and incubated for 24 hrs at 37° C./5% CO2. Actives were added to cells along with relevant controls. 72 hrs post active treatment, cell viability was determined using the Calcein method followed by measurement of cellular melanin content (described in below sections).
(iii) Cell Viability Assay: • Briefly, spent media was removed and cells washed once with 0.2 ml of 1× PBS-Ca—Mg solution. Fresh 1 μM calcein-AM in PBS buffer was added to each well. Plates were incubated for 30 min. at 37° C. in a CO2 incubator. Calcein fluorescence was then measured (excitation at 490 nm and emission at 520 nm) in TECAN M1000 plate reader.
(iv) Melanin Content Assay: • After Calcein measurements, cultures were rinsed with PBS (1×) and lysed for 1 hour at 60° C. in a shaker incubator using NaOH/DMSO mix. Melanin content was measured in a Tecan plate reader (405 nm filter), corrected for cell numbers and represented as % inhibition.

Structure (SMILES)	direct modulation / inhibition of Tyrosinase enzyme activity (in words) (Tyrosinase enzyme)	inhibition at 1 µM (Tyrosinase enzyme; 1 μM)	inhibition at 5 µM (Tyrosinase enzyme; 5 μM)	inhibition at 10 µM (Tyrosinase enzyme; 10 μM)	inhibition at 50 µM (Tyrosinase enzyme; 50 μM)	inhibition at 1 µM [1]	inhibition at 10 µM [1]	reduction of melanin content (in words) ([1]; concentration not specified)	reduction of melanin content (in words) ([1]; at 1 μM)	reduction of melanin content (in words) ([1]; at 10 μM)
CCCCCCc1ccc(O)cc1O [4-HR, 4-Hexylresorcinol]	through direct modulation of Tyrosinase enzyme activity	28%	55%	78%	78%	11%	38%	significant reduction in melanin content	–	–
CNC(=O)[C@H](Cc1c[nH]c2ccccc12)NC(=O)[C@@H](CC(=O)NO)CC(C)C [Galardin, (R)-N4-Hydroxy-N1-[(S)-2-(1H-indol-3-yl)-1-methylcarbamoyl-ethyl]-2-isobutyl-succinamide]	–	–	–	–	–	7%	17%	–	no reduction	modest reduction
